Results: patent publication US20220143194A1, “SELENIUM ANTIBODY CONJUGATES” (priority 2020, published 2022)
pIC50: −log10 of the molar value. Non-standard residues stand in square brackets, D forms with d. Residues, ends and D or L forms follow the SMILES beside them. *: point of attachment. Dolaproine = CO[C@@H]([C@@H]1CCCN1)[C@@H](C)C(=O)O; Dil = CC[C@H](C)[C@H](NC)[C@@H](CC(=O)O)OC; X1 = C[C@@H](N*)[C@@H](O)c1ccccc1; NMeV = CN[C@H](C(=O)O)C(C)C

Columns and labels:
[1] = test system: SKBR3 (Her2+) cells; test: In vitro cytotoxicity assay (CCK8 cell viability), SKBR3 (Her2+) cells; type: cell-based
Procedure: (§1) The ability of various antibody-drug conjugates and naked payloads to kill antigen-expressing tumor cells in vitro was assessed.
(§2) SKBR3 (Her2+) cells were seeded in 96 well plates at 8000 cells per well in complete growth media and grown overnight. For cell viability curves, serially diluted conjugates or naked payloads were added to the cells at final concentrations ranging from 100 nM to 5 pM and incubated for 3 days. NCI H1975 (Her2−) cells were run as negative controls using similar conditions. To measure viability, cells were incubated with CCK8 (Dojindo) for the final 2 hours and the absorbance at 450 nm (OD450) was determined on a Victor (Perkin Elmer). Background OD450 levels determined from digitonin (40 nM) treated cells were subtracted from all wells and viability is expressed as a percentage of the untreated controls. IC50 values were determined from a four-parameter logistic equation over a 10-point response curve (GraphPad Prism). […] The interchain disulfide conjugates had similar IC50 values as the transglutaminase site-specific selenocystamine conjugates. […] For comparison, the mc-vc-PAB-MMAE interchain disulfide conjugated molecules were produced according to Doronina, S. O. et al., Nat. Biotechnol., 2003, 21, 778.

[2] = test system: NCI H1975 (Her2−) cells; test: In vitro cytotoxicity assay (CCK8 cell viability), NCI H1975 (Her2−) negative control cells; type: cell-based; conditions: 3 days incubation
Procedure: as §1, §2

## CC[C@H](C)[C@@H]([C@@H](CC(=O)N1CCC[C@H]1[C@H](OC)[C@@H](C)C(=O)N[C@H](C)[C@@H](O)c1ccccc1)OC)N(C)C(=O)[C@@H](NC(=O)[C@@H](NC)C(C)C)C(C)C [MMAE, monomethyl auristatin E] (H-[NMeV]V[Dil][Dolaproine]-X1)
[1]; Homo sapiens, SK-BR-3, 72 h
  pIC50: 9.72
[1]; SK-BR-3 cells, 3 days incubation, CCK8 viability, concentrations 100 nM to 5 pM
  % Kill: 93.6%
[2]; concentrations 100 nM to 5 pM
  % Kill: 100%
[2]; Homo sapiens, 72 h, IC50 corrected for payload equivalents
  pIC50: 9.39
